{"source": "patent US7323456B2", "about": "“Carboxylic acid derivatives compounds and agents comprising the compounds as active ingredient” (Ono Pharmaceutical Co., Ltd., priority 2001, dated 2008)", "key": {"human PPAR α": {"molecular_target": "T1, human PPAR α (Homo sapiens, UniProt Q07869)", "T1 construct": "expressed in transfected cells; host or cells: CV-1 cells", "T1 sequence (Q07869 167-468)": "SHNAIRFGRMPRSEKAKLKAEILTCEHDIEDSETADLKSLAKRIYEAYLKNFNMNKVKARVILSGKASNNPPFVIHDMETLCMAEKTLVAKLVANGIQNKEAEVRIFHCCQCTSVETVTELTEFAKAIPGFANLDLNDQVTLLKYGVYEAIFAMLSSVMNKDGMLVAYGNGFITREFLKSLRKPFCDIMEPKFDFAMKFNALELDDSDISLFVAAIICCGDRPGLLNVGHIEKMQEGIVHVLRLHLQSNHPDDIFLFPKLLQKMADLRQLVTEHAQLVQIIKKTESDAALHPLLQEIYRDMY", "assay": "Luciferase assay of PPAR α agonistic activity (Gal4-PPAR chimeric receptor, CV-1 cells)", "assay_type": "cell-based", "details": "compound 10 μM, luciferase activity of carbacyclin (10 μM) defined as 1.0, 42 hours"}, "human PPAR γ": {"molecular_target": "T2, human PPAR γ (Homo sapiens, UniProt P37231)", "T2 construct": "expressed in transfected cells; host or cells: CV-1 cells", "T2 sequence (P37231 204-505)": "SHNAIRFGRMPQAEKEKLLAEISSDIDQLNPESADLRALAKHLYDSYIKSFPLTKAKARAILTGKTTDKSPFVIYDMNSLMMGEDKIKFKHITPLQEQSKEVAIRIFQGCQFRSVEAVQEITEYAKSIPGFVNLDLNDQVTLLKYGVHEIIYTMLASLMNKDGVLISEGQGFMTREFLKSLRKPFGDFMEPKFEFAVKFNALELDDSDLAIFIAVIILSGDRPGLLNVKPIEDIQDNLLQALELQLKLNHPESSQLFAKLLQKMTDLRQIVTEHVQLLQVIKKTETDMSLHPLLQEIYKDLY", "assay": "Luciferase assay of PPAR γ agonistic activity (Gal4-PPAR chimeric receptor, CV-1 cells)", "assay_type": "cell-based", "details": "compound 10 μM, luciferase activity of troglitazone (10 μM) defined as 1.0, 42 hours"}}, "data": [{"smiles": "C=CCN(CC(=O)O)Cc1cccc(OCCc2nc(-c3ccc(N4CCCCCC4)nc3)oc2C)c1", "note": "[Example 2, 2-(N-allyl-N-(3-(2-(2-(6-(perhydroazepin-1-yl)pyridin-3-yl)-5-methyloxazol-4-yl)ethoxy)benzyl)amino)acetic acid]", "values": [{"measurement": "Relative Activity to a positive control compound (carbacyclin = 1)", "setting": "human PPAR α", "result": 0.9}, {"measurement": "Relative Activity to a positive control compound (troglitazone = 1)", "setting": "human PPAR γ", "result": 11.5}]}]}
